Assay results from patent publication US20140242180A1, “NANOPARTICLES FOR CONTROLLING BLEEDING AND DRUG DELIVERY” (CASE WESTERN RESERVE UNIVERSITY, priority 2011, published 2014).
“Also recorded” adds a separate entry of the source.

Test system: activated platelets
Assay: in vitro screening of activated labeled platelets binding to polymer-modified surfaces
Format: cell-based
Conditions: preliminary work; PEG 4600
Source text: An in vitro system was developed for high throughput screening of the coagulation efficiency of the synthetic platelets with the platelets labeled using CellTracker green following to facilitate ease of analysis. Essentially, this assay involves activating platelets which have been previously labeled with CellTracker and looking at the number that bind to surfaces modified with a polymer systems under agitation. This assay was validated with collagen. This system allowed one to efficiently and independently vary the PEG molecular weight and RGD motif (i.e. RGD, RGDS, and GRGDS).

Substance: GRGDS [GRGDS peptide]
- adhesion and aggregation of activated platelets: efficient adhesion and aggregation; also recorded: good binding and adhesion
